Molecular target: T1, Soluble acetylcholine receptor (Aplysia californica, UniProt Q8WSF8)
T1 sequence (Q8WSF8 whole entry): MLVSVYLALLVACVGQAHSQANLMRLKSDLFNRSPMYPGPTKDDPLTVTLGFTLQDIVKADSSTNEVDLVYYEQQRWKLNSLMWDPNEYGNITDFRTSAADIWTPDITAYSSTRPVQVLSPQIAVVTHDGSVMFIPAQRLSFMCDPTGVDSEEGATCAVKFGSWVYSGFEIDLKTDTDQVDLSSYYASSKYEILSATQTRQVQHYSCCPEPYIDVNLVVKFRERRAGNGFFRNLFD
Test: Displacement [125I]alpha-bungarotoxin from untagged Aplysia californica AChBP expressed in Sf9 cells by competitive binding assay

Compound: C[C@@H]1NC(=O)[C@@H]2CSSC[C@H](NC(=O)CN)C(=O)N[C@@H](CSSC[C@@H](C(=O)O)NC(=O)[C@H](CCCNC(=N)N)NC(=O)[C@H](Cc3c[nH]c4ccccc34)NC1=O)C(=O)N[C@@H](CO)C(=O)N[C@@H](CC(=O)O)C(=O)N1CCC[C@H]1C(=O)N[C@@H](CCCNC(=N)N)C(=O)N2
- IC50: 33 nM

— ChEMBL document CHEMBL3758090, “Investigation of α-conotoxin unbinding using umbrella sampling” (Bioorg Med Chem Lett, 2016)
